Source: US9120812B2, “Pyrimidooxazocine derivatives as mTOR-inhibitors” (SANOFI, priority 2012, dated 2015)
Like-named read-outs stand apart in the source and are kept apart here.

Tests used:
PI3Kα (p110α/p85α) = PI3Kα (p110α/p85α) (Homo sapiens (Human), UniProt P42336); assay: PI3Kα enzymatic test by measuring the consumption of ATP; format: biochemical
Procedure, shortened: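 ATP consumption read out by KinaseGlo luminescence after a 90 min reaction of 1.7 μg/ml PI3Kα (p110α/p85α) with 2 μM ATP and 50 μM PIP2, buffered at pH 7.5 (Tris, 10 mM MgCl2, 1 mM EGTA, 0.03% Chaps, 1 mM DTT). Threefold dilution series over ≥10 000-fold range yield IC50.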

[1] = target: mTOR (human recombinant aa mTOR 1360-2549) (Homo sapiens (Human), UniProt P42345); assay: mTOR enzymatic test by TR-FRET (phosphorylation of GFP-4EBP1); format: biochemical
Sequence of mTOR (human recombinant aa mTOR 1360-2549) (P42345 1360-2549): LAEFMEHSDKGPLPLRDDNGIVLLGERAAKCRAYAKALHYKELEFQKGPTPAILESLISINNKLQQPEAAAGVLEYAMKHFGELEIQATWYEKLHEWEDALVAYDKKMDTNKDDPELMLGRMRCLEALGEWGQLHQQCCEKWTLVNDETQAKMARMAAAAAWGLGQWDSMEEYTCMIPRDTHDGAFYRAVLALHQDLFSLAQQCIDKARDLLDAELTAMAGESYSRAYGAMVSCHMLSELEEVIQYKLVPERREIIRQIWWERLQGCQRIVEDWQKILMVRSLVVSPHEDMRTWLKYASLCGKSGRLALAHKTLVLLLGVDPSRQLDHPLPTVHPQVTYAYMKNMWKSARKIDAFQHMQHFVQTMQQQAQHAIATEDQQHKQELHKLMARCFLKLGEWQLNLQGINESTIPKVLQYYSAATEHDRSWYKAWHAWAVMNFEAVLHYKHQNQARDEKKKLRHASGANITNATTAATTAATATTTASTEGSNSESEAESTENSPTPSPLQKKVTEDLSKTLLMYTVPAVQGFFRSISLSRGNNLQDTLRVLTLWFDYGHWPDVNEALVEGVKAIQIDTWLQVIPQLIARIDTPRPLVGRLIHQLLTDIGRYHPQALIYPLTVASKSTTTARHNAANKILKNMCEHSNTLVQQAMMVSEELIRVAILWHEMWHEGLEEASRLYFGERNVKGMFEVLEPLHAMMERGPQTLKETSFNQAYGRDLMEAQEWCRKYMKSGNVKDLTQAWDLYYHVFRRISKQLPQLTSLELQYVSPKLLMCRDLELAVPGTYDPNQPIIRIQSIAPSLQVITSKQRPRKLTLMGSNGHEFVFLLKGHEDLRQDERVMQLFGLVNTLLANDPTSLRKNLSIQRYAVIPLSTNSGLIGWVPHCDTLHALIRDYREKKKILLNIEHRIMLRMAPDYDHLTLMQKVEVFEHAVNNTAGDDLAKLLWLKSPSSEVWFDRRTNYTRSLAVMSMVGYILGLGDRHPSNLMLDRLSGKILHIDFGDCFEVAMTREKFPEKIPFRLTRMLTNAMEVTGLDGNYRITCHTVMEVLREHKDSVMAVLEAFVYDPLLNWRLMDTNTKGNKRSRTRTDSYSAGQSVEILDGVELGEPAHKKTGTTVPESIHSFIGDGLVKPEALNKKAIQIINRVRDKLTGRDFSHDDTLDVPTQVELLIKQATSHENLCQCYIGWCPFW
Procedure, shortened: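 After a 30 min room-temperature kinase reaction, EDTA (10 mM final) and Tb-labelled phospho-Thr46 antibody (2 nM final) were added and incubated 60 min. Energy transfer from Tb to phosphorylated GFP-4EBP1 was read at 340 nm excitation, emissions 490/520 nm. Values derive from the 520/490 fluorescence ratio.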

U87MG tumour cells = assay: Test of in vitro proliferation of U87MG tumour cells; format: cell-based; settings: Homo sapiens, U-87 MG, 72 h, U87MG cells, 72 hours; read-out: U87 Cell Proliferation IC50
Protocol: Model 4: Test of in vitro Proliferation of U87MG Tumour Cells.
The cell growth is determined with the reagent CellTiter 96 AQueous One Solution Cell Proliferation Assay from Promega (Cat. No. G3581).

[2] = Homo sapiens, U-87 MG, read-out: U87 Akt-pS473 % Inhibition or IC50, nM (IC50), U87MG cells

Sequence of PI3Kα (p110α/p85α) (P42336 whole entry): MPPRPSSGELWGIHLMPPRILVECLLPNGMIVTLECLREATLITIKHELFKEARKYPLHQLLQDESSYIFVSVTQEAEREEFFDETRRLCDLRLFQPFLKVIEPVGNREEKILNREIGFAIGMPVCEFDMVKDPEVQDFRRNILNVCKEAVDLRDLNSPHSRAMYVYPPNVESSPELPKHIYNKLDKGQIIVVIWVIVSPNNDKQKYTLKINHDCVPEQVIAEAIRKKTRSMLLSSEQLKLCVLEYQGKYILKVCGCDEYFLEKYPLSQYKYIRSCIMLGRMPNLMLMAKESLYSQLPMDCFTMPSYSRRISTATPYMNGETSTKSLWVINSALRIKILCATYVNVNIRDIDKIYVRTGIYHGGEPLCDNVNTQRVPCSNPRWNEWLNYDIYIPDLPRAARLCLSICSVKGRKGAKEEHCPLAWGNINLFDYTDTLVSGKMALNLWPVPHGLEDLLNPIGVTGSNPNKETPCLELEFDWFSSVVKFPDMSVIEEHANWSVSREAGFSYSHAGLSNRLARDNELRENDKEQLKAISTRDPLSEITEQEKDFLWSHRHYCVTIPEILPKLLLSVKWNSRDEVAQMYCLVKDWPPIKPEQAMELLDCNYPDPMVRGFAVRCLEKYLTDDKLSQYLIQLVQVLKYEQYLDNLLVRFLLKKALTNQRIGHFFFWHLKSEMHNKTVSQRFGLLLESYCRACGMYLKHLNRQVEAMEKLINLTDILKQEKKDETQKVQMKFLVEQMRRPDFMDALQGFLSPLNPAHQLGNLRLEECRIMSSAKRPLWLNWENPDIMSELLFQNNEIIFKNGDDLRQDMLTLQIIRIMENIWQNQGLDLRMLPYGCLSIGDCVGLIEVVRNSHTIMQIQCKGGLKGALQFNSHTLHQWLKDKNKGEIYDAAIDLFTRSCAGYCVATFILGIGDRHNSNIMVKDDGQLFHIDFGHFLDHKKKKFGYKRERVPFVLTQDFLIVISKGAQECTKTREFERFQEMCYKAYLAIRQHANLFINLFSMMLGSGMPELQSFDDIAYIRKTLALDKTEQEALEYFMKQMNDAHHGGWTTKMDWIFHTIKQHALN
Sequence of PI3Kα (p110α/p85α) (P27986 whole entry partner): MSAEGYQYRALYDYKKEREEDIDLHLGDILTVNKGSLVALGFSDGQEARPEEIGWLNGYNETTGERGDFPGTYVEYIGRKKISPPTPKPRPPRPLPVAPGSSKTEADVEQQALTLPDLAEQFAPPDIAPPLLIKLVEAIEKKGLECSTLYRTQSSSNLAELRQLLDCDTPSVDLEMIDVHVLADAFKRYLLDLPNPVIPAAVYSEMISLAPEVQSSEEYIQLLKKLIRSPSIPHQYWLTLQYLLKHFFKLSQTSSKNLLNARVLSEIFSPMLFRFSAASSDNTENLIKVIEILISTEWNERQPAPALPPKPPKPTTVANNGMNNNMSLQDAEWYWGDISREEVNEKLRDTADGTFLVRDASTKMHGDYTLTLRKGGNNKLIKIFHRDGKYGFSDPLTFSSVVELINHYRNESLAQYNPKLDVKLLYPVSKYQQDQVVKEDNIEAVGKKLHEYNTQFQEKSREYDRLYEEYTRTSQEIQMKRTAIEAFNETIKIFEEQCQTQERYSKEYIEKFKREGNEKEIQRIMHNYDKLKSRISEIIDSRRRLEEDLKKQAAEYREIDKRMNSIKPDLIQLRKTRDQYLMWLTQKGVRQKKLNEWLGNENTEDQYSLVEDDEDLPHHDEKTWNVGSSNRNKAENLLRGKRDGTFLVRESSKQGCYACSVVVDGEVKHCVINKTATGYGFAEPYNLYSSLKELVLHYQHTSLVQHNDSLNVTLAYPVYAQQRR
Protocol for Akt-pS473 in U87MG cells: Model 3: Cellular Test of Phosphorylation of the Epitope S473 of the Akt Protein on the U87MG Line Via an ELISA Test
An electrochemiluminescence signal is generated by a ruthenium-labelled anti-rabbit antibody.
After culturing for 16-20 hours (the cells are at 100% of confluence) at 37° C. under 5% CO2, 1 μl of the chemical compounds in 100% DMSO (1% DMSO final concentration on the cells) is added. The cells are incubated with the compounds for 3 hours at 37° C. under 5% CO2.
The free sites are blocked with 150 μl/well of a buffer of 50 mM Tris pH 7.5, 0.15 M NaCl, 0.02% Tween 20, 3% BSA with stirring at 450 rpm for 1 hour at room temperature, followed by a step of washing with 3×300 μl of a buffer of 50 mM Tris pH 7.5, 0.15 M NaCl, 0.02% Tween 20.
15 μl of cell lysate are mixed with 15 μl of a 50 mM buffer of Tris pH 7.5, 0.15 M NaCl, 0.02% Tween 20, 1% BSA in a precoated ELISA plate (see above), and incubated for 1 hour at room temperature with stirring, followed by a step of washing with 3×300 μl of a buffer of 50 mM Tris pH 7.5, 0.15 M NaCl, 0.02% Tween 20. The pS473 epitope of Akt is detected with a rabbit polyclonal antibody (Cell Signaling, SC9271), diluted 100-fold in 50 mM Tris pH 7.5, 0.15 M NaCl, 0.02% Tween 20, 1% BSA, 25 μl/well (incubation for 1 hour at room temperature with stirring at 450 rpm).
After washing (see above), revelation is performed with a ruthenium-labelled anti-rabbit antibody (MSD R32AB1), diluted 3000-fold in a 50 mM buffer of Tris pH 7.5, 0.15 M NaCl, 0.02% Tween 20, 1% BSA, 25 μl/well, followed by incubation for 1 hour at room temperature with stirring at 450 rpm, and the plates are covered with aluminium.
After a further washing step, the plates are emptied and 150 μl of MSD Read Buffer T diluted fourfold with water are added. The electrochemiluminescence is measured on the MSD Sector Imager 6000.

Compound | PI3Ka IC50 (PI3Kα (p110α/p85α)) [µM] | IC50 [1] [µM] | IC50 (Akt-pS473 in U87MG cells; [2]) [nM] | IC50 (U87MG tumour cells) [µM] | IC50 (Akt-pS473 in U87MG cells; read-out: U87 Akt-pS473 % Inhibition or IC50, nM (IC50), U87MG cells) [nM]
CCNC(=O)Nc1ccc(-c2nc(N3CCOCC3)nc3c2C(=O)N(CC)CC(C)(C)O3)cc1 [Example 96, 1-Ethyl-3-[4-(6-ethyl-8,8-dimethyl-2-morpholin-4-yl-5-oxo-5,6,7,8-tetrahydro-9-oxa-1,3,6-triazabenzocyclohepten-4-yl)phenyl]urea] | 1.444 | 0.072 | 107 | 1.47 | 
CCNC(=O)Nc1ccc(-c2nc(N3CCOC[C@@H]3C)nc3c2C(=O)N(CC)CC(C)(C)O3)cc1 [Example 98, 1-Ethyl-3-{4-[6-ethyl-8,8-dimethyl-2-((S)-3-methylmorpholin-4-yl)-5-oxo-5,6,7,8-tetrahydro-9-oxa-1,3,6-triazabenzocyclohepten-4-yl]phenyl}urea] | 1.138 | 0.026 | 20 | 0.184 | 
CCNC(=O)Nc1ccc(-c2nc(N3CC4CCC(C3)O4)nc3c2C(=O)N(CC)CC(C)(C)O3)cc1 [Example 99, 1-Ethyl-3-{4-[6-ethyl-8,8-dimethyl-2-(8-oxa-3-azabicyclo[3.2.1]oct-3-yl)-5-oxo-5,6,7,8-tetrahydro-9-oxa-1,3,6-triazabenzocyclohepten-4-yl]phenyl}urea] | >10 | 0.031 | 40 | 0.239 | 
CCN1CC(C)(C)Oc2nc(N3CCOCC3)nc(-c3ccc(NC(=O)OC)cc3)c2C1=O [Example 103, [4-(6-Ethyl-8,8-dimethyl-2-morpholin-4-yl-5-oxo-5,6,7,8-tetrahydro-9-oxa-1,3,6-triazabenzocyclohepten-4-yl)phenyl]carbamic acid methyl ester] | 6.59 | 0.194 | 425 | 3.51 | 
CCN1CC(C)(C)Oc2nc(N3CC4CCC(C3)O4)nc(-c3ccc(NC(=O)OC)cc3)c2C1=O [Example 105, {4-[6-Ethyl-8,8-dimethyl-2-(8-oxa-3-azabicyclo[3.2.1]oct-3-yl)-5-oxo-5,6,7,8-tetrahydro-9-oxa-1,3,6-triazabenzocyclohepten-4-yl]phenyl}carbamic acid methyl ester] | >10 | 0.18 | 360 | 2.69 | 
CCOC(=O)Nc1ccc(-c2nc(N3CC4CCC(C3)O4)nc3c2C(=O)N(CC)CC(C)(C)O3)cc1 [Example 106, {4-[6-Ethyl-8,8-dimethyl-2-(8-oxa-3-azabicyclo[3.2.1]oct-3-yl)-5-oxo-5,6,7,8-tetrahydro-9-oxa-1,3,6-triazabenzocyclohepten-4-yl]phenyl}carbamic acid ethyl ester] | >10 | 0.442 | 767 | 6.56 | 
CCNC(=O)Nc1ccc(-c2nc(N3CC4CCC(C3)O4)nc3c2C(=O)N(CC)CC(C)(C)O3)cc1F [Example 110, 1-Ethyl-3-{4-[6-ethyl-8,8-dimethyl-2-(8-oxa-3-azabicyclo[3.2.1]oct-3-yl)-5-oxo-5,6,7,8-tetrahydro-9-oxa-1,3,6-triazabenzocyclohepten-4-yl]-2-fluorophenyl}urea] | >10 | 0.045 | 89 | 0.506 | 
CCN1CC(C)(C)Oc2nc(N3CC4CCC(C3)O4)nc(-c3ccc(NC(=O)Nc4cccnc4)cc3)c2C1=O [Example 112, 1-{4-[6-Ethyl-8,8-dimethyl-2-(8-oxa-3-azabicyclo[3.2.1]oct-3-yl)-5-oxo-5,6,7,8-tetrahydro-9-oxa-1,3,6-triazabenzocyclohepten-4-yl]phenyl}-3-pyridin-3-ylurea] | 2.66 | 0.02 | 24 | 0.154 | 
CCN1CC(C)(C)Oc2nc(N3CC4CCC(C3)O4)nc(-c3ccc(NC(=O)Nc4cc(C)on4)cc3)c2C1=O [Example 116, 1-{4-[6-Ethyl-8,8-dimethyl-2-(8-oxa-3-azabicyclo[3.2.1]oct-3-yl)-5-oxo-5,6,7,8-tetrahydro-9-oxa-1,3,6-triazabenzocyclohepten-4-yl]phenyl}-3-(5-methylisoxazol-3-yl)urea] | 4.31 | 0.042 | 98 | 0.282 | 
CCN1CC(C)(C)Oc2nc(N3CC4CCC(C3)O4)nc(-c3ccc(NC(=O)NCCO)cc3)c2C1=O [Example 117, 1-{4-[6-Ethyl-8,8-dimethyl-2-(8-oxa-3-azabicyclo[3.2.1]oct-3-yl)-5-oxo-5,6,7,8-tetrahydro-9-oxa-1,3,6-triazabenzocyclohepten-4-yl]phenyl}-3-(2-hydroxyethyl)urea] | 7.41 | 0.025 | 812 | 1.7 | 
CCN1CC(C)(C)Oc2nc(N3CC4CCC(C3)O4)nc(-c3ccc(Nc4nc5ccccc5[nH]4)cc3)c2C1=O [Example 118, 4-[4-(1H-Benzimidazol-2-ylamino)phenyl]-6-ethyl-8,8-dimethyl-2-(8-oxa-3-azabicyclo[3.2.1]oct-3-yl)-7,8-dihydro-6H-9-oxa-1,3,6-triazabenzocyclohepten-5-one] | 5.04 | 0.058 | 32 | 0.233 | 
CCN1CC(C)(C)Oc2nc(N3CC4CCC(C3)O4)nc(-c3ccc(NC(=O)NCCCO)cc3)c2C1=O [Example 119, 1-{4-[6-Ethyl-8,8-dimethyl-2-(8-oxa-3-azabicyclo[3.2.1]oct-3-yl)-5-oxo-5,6,7,8-tetrahydro-9-oxa-1,3,6-triazabenzocyclohepten-4-yl]phenyl}-3-(3-hydroxypropyl)urea] | >10 | 0.104 | 1060 | > 3 | 
CCNC(=O)Nc1ccc(-c2nc(N3CC4CCC(C3)O4)nc3c2C(=O)N(CCC(=O)OC(C)(C)C)CC(C)(C)O3)cc1 [Example 120, 3-[4-[4-(3-Ethylureido)phenyl]-8,8-dimethyl-2-(8-oxa-3-azabicyclo[3.2.1]oct-3-yl)-5-oxo-7,8-dihydro-5H-9-oxa-1,3,6-triazabenzocyclohepten-6-yl]propionic acid tert-butyl ester] | >10 | 0.351 | 1180 | 2.26 | 
CCN1CC(C)(C)Oc2nc(N3CC4CCC(C3)O4)nc(-c3ccc(Nc4nnc(C)s4)cc3)c2C1=O [Example 121, 6-Ethyl-8,8-dimethyl-4-[4-(5-methyl-[1,3,4]thiadiazol-2-ylamino)phenyl]-2-(8-oxa-3-azabicyclo[3.2.1]oct-3-yl)-7,8-dihydro-6H-9-oxa-1,3,6-triazabenzocyclohepten-5-one] | >10 | 0.066 | 130 | 0.802 | 
CCN1CC(C)(C)Oc2nc(N3CC4CCC(C3)O4)nc(-c3ccc(NC(=O)NCCF)cc3)c2C1=O [Example 123, 1-{4-[6-Ethyl-8,8-dimethyl-2-(8-oxa-3-azabicyclo[3.2.1]oct-3-yl)-5-oxo-5,6,7,8-tetrahydro-9-oxa-1,3,6-triazabenzocyclohepten-4-yl]phenyl}-3-(2-fluoroethyl)urea] | 3.627 | 0.022 | 150 | 0.221 | 
CCN1CC(C)(C)Oc2nc(N3CC4CCC(C3)O4)nc(-c3ccc(NC(=O)Nc4ccc(OC)nc4)c(F)c3)c2C1=O [Example 124, 1-{4-[6-Ethyl-8,8-dimethyl-2-(8-oxa-3-azabicyclo[3.2.1]oct-3-yl)-5-oxo-5,6,7,8-tetrahydro-9-oxa-1,3,6-triazabenzocyclohepten-4-yl]-2-fluorophenyl}-3-(6-methoxypyridin-3-yl)urea] | >10 | 0.02 |  | 0.115 | 61
CCN1CC(C)(C)Oc2nc(N3CC4CCC(C3)O4)nc(-c3ccc(NC(=O)Nc4cnn(C)c4)cc3)c2C1=O [Example 126, 1-{4-[6-Ethyl-8,8-dimethyl-2-(8-oxa-3-azabicyclo[3.2.1]oct-3-yl)-5-oxo-5,6,7,8-tetrahydro-9-oxa-1,3,6-triazabenzocyclohepten-4-yl]phenyl}-3-(1-methyl-1H-pyrazol-4-yl)urea] | 2.963 | 0.013 | 68 | 0.225 | 
CCN1CC(C)(C)Oc2nc(N3CC4CCC(C3)O4)nc(-c3ccc(NC(=O)Nc4cccc(OC)c4)cc3)c2C1=O [Example 127, 1-{4-[6-Ethyl-8,8-dimethyl-2-(8-oxa-3-azabicyclo[3.2.1]oct-3-yl)-5-oxo-5,6,7,8-tetrahydro-9-oxa-1,3,6-triazabenzocyclohepten-4-yl]phenyl}-3-(3-methoxyphenyl)urea] | 3.646 | 0.016 | 24 | 0.079 | 
CCN1CC(C)(C)Oc2nc(N3CC4CCC(C3)O4)nc(-c3ccc(NC(=O)NCC4CCS(=O)(=O)C4)c(F)c3)c2C1=O (stereo not shown) [Example 129, 1-(1,1-Dioxotetrahydro-1λ6-thiophen-3-ylmethyl)-3-{4-[6-ethyl-8,8-dimethyl-2-(8-oxa-3-azabicyclo[3.2.1]oct-3-yl)-5-oxo-5,6,7,8-tetrahydro-9-oxa-1,3,6-triazabenzocyclohepten-4-yl]-2-fluorophenyl}urea] | >10 | 1.38 | > 3000 | > 10 | 
